In article PMC3068151 (PLoS ONE, 2011):

Columns and labels:
[1] = molecular target: EGFR (Homo sapiens, UniProt P00533); test: Phosphorylated-EGFR sandwich ELISA in PC3 cells; format: cell-based; details: 100 µM, 30 ng/ml EGF
Procedure: (§1) Cells were seeded in 12-well plates at concentration of 10^5cells/ml in complete medium until they reached ∼40% confluence and serum starved overnight. The day after cells were treated with compounds under study, vehicle or standard drug, stimulated with the proper agonist, rinsed with sterile PBS and solubilized in lysis buffer. The lysates were resuspended and rocked at 4°C for 30 minutes and then centrifuged at 14000 xg for 5 minutes. The protein content of supernatant was measured with BCA protein assay kit (Thermo scientific), standardized to 200 µg/ml and transferred into a clean test tube ready to be used.
(§2) EphA2-, EphB4- and EGFR-phosphorylation were measured in cell lysates using DuoSet®IC Sandwich ELISA (RnD Systems, #DYC4056, #DYC4057 and #DYC1095, respectively) following manufacturer's protocol. […] The day after wells were washed and blocked for 1 hour at room temperature. After that, wells were washed and 100 µl/well of lysates were added at room temperature for 2 hours; wells were washed and incubated with Detection Antibody at room temperature for 2 hours.
A, B) EGFR phosphorylation was induced by 30 ng/ml and 10 ng/ml EGF on PC3 (A) and HT29 (B) cells, respectively. […] Data are the means of two experiments ± st. err.

[2] = molecular target: T1, EphB4 (Homo sapiens, UniProt P54760); test: Phosphorylated-EphB4 sandwich ELISA in T47D cell lysates; format: cell-based; details: T47D cells, 3 µg/ml ephrinB2-Fc preclustered with 0.3 µg/ml IgG Fc fragment; read-out: IC50 EphB4 phosphorylation
T1 construct: EphB4 phosphorylation on T47D breast cancer cells; endogenous in cells; host or cells: T47D
T1 sequence (P54760 16-987): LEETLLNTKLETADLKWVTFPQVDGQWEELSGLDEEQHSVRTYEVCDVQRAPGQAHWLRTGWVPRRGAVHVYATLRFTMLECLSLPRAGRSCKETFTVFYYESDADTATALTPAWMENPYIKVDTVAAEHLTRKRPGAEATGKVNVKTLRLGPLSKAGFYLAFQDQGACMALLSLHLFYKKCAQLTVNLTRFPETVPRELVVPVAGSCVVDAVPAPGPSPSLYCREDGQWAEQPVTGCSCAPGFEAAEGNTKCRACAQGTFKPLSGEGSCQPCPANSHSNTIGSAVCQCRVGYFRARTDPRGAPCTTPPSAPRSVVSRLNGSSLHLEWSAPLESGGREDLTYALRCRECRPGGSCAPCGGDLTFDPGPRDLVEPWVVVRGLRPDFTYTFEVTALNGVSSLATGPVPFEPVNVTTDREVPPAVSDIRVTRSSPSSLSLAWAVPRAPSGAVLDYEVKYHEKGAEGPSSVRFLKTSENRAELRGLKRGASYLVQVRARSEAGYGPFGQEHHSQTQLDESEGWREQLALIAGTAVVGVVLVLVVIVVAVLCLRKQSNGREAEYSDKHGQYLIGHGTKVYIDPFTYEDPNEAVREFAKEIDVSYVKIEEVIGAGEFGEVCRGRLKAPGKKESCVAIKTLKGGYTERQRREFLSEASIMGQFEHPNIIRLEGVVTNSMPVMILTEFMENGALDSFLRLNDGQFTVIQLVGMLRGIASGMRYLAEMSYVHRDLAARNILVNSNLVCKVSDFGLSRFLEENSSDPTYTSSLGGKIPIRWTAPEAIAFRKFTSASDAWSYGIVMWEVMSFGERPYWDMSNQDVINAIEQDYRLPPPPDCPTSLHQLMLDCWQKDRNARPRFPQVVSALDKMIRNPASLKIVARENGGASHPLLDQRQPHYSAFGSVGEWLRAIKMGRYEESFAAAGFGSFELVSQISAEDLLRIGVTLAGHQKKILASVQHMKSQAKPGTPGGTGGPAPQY
Procedure: as §1, §2
EphB4 phosphorylation was stimulated with 3 µg/ml ephrinB2-Fc, preclustered with 0.3 µg/ml IgG Fc fragment on T47D cells (G, H, I). […] Phospho-EphA2/B4 levels are relative to ephrinA1/B2-Fc+DMSO. Data are the means of at least three independent experiment ± st. err. […]

[3] = molecular target: EphA2 (Homo sapiens, UniProt P29317); details: up to 100 µM
Procedure: Recombinant human EphA2 enzyme activity was evaluated with LANCE® method using ATP and Ulight-TK peptide as substrate (http://las.perkinelmer.com/).

[4] = molecular target: T2, EphA2-ephrinA1 binding (Mus musculus, UniProt Q03145); test: ELISA EphA2-ephrinA1 binding (displacement and saturation); details: 200 µM for 1 hour, some wells washed before adding 50 ng/ml ephrinA1-Fc
T2 construct: we immobilized EphA2-Fc- ectodomain on proper ELISA plates; purchased R&D systems 639-A2 (EphA2-Fc); BT602 (biotinylated ephrinA1-Fc)

[5] = test system: EphB kinases; test: ELISA displacement of biotinylated ephrinB1-Fc from immobilized EphB-Fc ectodomains; format: binding; details: biotinylated ephrinB1-Fc at KD concentration
[6] = molecular target: T2, EphA2-ephrinA1 binding; test: ELISA EphA2-ephrinA1 binding (displacement and saturation)
Procedure: Our chemical collection (Table S1) was stocked in a 20 mM dimethyl sulfoxide (DMSO) solution and we performed binding assay at a concentration of 200 µM. Only compounds displacing more than 40% ephrinA1 from EphA2 receptor were considered for a full concentration-binding curve. […] The day after wells were washed three times with washing buffer (PBS +0.05% tween20, pH 7.5) and blocked with 300 µl of blocking solution (PBS +0.5% BSA) for 1 hour at 37°C. Compounds were added to the wells at proper concentration in 1% dimethyl sulfoxide (DMSO) and incubated at 37°C for 1 hour. Biotinylated ephrinA1-Fc (R&D BT602) was added at 37°C for 4 hours at 30 ng/ml in displacement assays or in a range from 1 to 2000 ng/ml in saturation studies. […] The reaction was stopped with 3N HCl 100 µl/well and the absorbance was measured using an ELISA plate reader (Sunrise, TECAN, Switzerland) at 450 nm.
The IC50 value was determined using one-site competition non-linear regression and Kd values of the curves with or without antagonists were calculated using one-binding site non-linear regression analysis with Prism software (GraphPad Software Inc.). The Ki was obtained using Schild plot where Log[DR-1] is a function of the negative Log10 of the inhibitor concentration. The Hill's coefficient was calculated using linear fitting to evaluate whether the inhibition was competitive or uncompetitive.
To identify compounds interfering with EphA2-ephrinA1 binding we immobilized EphA2-Fc- ectodomain on proper ELISA plates and binding of biotinylated-ephrin-A1-Fc was detected using the colorimetric reaction developed by streptavidine-HRP and tetramethylbenzidine.

T2 sequence (Q03145 26-538 limits assumed): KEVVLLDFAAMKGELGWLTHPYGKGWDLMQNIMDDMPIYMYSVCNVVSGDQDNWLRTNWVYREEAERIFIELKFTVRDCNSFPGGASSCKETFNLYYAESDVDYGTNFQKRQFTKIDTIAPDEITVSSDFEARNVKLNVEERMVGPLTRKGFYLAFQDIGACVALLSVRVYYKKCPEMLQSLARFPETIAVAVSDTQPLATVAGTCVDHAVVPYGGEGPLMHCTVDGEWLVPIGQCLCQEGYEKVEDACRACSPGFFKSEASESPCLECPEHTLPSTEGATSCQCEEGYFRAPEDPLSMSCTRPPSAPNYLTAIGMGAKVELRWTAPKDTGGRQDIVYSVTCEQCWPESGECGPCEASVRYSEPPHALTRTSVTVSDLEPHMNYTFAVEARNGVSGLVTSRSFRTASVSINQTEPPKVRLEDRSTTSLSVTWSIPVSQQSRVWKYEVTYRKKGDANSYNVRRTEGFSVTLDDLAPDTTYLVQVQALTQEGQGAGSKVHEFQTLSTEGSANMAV
Chain of EGFR (P00533 25-1210): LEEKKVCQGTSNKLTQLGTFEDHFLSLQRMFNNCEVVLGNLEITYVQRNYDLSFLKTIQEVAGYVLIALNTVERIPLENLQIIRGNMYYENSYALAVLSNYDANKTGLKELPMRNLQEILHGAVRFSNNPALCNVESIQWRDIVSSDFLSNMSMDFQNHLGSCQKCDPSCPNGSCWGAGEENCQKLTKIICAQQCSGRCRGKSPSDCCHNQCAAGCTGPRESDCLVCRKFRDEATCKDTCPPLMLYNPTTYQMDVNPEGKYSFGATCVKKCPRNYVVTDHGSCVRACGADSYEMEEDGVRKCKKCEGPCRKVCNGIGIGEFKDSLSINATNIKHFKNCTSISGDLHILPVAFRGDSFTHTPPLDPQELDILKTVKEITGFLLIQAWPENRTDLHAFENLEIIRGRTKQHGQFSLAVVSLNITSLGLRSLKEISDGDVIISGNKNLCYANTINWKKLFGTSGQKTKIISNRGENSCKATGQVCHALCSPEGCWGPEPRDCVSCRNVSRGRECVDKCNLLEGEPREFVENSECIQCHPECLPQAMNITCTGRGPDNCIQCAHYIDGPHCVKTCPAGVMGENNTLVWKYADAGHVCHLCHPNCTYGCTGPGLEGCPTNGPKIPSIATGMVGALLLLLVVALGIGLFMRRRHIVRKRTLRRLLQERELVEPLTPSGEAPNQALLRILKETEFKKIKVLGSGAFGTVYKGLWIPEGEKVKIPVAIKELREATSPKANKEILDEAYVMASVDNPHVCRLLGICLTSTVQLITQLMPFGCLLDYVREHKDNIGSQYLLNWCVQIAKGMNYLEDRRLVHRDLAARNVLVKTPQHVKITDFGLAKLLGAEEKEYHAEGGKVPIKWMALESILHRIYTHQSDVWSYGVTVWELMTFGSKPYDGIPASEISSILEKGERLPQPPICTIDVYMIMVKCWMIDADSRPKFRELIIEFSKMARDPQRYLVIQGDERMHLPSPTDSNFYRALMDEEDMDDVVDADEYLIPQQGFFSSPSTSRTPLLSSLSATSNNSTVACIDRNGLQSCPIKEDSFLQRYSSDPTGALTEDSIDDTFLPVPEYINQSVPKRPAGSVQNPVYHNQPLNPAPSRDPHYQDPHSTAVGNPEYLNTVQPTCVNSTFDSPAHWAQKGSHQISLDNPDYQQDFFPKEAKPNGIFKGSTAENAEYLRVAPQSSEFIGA
Chain of EphA2 (P29317 24-976): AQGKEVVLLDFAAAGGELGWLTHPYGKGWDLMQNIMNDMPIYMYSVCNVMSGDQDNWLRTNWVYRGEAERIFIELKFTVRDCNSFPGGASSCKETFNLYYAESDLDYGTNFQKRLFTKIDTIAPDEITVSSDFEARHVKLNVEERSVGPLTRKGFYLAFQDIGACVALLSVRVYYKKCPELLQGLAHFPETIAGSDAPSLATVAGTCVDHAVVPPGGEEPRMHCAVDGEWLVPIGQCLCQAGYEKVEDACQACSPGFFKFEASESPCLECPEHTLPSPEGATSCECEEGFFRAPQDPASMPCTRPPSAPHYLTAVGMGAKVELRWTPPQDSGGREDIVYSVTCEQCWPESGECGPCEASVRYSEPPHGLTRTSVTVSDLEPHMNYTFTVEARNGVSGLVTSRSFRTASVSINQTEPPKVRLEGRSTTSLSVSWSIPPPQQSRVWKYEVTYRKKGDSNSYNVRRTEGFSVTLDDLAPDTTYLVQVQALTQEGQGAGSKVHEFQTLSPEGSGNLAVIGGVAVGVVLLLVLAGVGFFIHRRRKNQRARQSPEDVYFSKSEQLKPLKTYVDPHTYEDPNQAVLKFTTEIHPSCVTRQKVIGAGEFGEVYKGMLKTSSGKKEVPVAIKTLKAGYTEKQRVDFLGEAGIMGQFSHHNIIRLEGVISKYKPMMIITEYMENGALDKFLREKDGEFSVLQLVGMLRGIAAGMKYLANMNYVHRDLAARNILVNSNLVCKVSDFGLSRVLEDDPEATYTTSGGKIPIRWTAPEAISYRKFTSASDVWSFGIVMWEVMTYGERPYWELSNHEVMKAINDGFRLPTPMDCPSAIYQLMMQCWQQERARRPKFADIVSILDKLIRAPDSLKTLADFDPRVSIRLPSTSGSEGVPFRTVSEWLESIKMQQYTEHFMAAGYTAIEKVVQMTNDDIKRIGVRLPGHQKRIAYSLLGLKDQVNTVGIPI

C[C@H](CCC(=O)O)[C@H]1CC[C@H]2[C@@H]3CC[C@@H]4C[C@H](O)CC[C@]4(C)[C@H]3CC[C@]12C [LCA, lithocholic acid]
effect on EGF-induced EGFR phosphorylation [1]: completely inactive
IC50 [2]: 141 µM
effect on EphA2 enzymatic activity [3]: did not modify enzymatic activity
reversibility of binding (displacement with or without washing) [4]: The displacement was detected only where the washing was not performed
displacement of ephrin-B1-Fc ectodomain from immobilized EphB-Fc ectodomains [5]: dose-dependently displaced
reduction of EphA2-ephrinA1 binding (library screening) ([6]; 200 µM, incubated 1 hour): significantly reduce
decrease of EphA2-ephrinA1 binding ([6]; bile acids, repeat of the 200 µM experiment): 68.2%±4.3
Ki ([6]; corresponding to pKi, read-out: Ki (Schild plot)): 49 µM
IC50 ([6]; read-out: IC50 displacement of biotinylated-ephrinA1-Fc from EphA2): 57 µM
slope of Schild plot ([6]; saturation curves with increasing LCA, r^2 = 0.9664): 0.8618
